Measured values: patent US12465590B2, “Oxalamido-substituted tricyclic inhibitors of hepatitis b virus” (priority 2019, dated 2025)

The molecules below were run on HBV (assay: HBV inhibition assay in HepAD38 cells (extracellular HBV DNA by direct qPCR)). Conditions: Hepatitis B virus, 96 hours, read-out: HBV inh EC50.
Format: cell-based, HBV genotype D subtype ayw
Source text: HepAD38 cell line (Ladner et al., Antimicrob Agents Chemother, 1997, 41, 1715-20) was used for HBV inhibition assays. HepAD38 is a subclone, derived from hepatoblastoma cell line HepG2 (ATCC® Number: HB-8065), that expresses HBV genome (genotype D subtype ayw) under the transcriptional control of a tetracycline-responsive promoter in a TET-OFF system: addition of doxycycline, an antibiotic belonging to the class of tetracycline, suppresses HBV replication, while its removal switches on the process allowing HBV viral particles release in the cell supernatant. HepAD38 cell line is maintained in DMEM/F12, supplemented with 10% of fetal bovine serum, 1% of glutamine, 1% of penicillin/streptomycin, 0.4 mg/ml G418 and 0.3 ug/ml tetracycline. For the HBV inhibition assay, doxycycline-free medium is used in order to allow virion production.
HBV inhibition activity in vitro was performed in 96 multiwell plates. During the initial (primary) screening, compounds were first tested in triplicates at concentrations of 0.02 μM, 0.1 μM, 0.5 μM and 1 μM. For selected compounds, an 8-point dose-response curve was obtained using 1:2 serial dilutions (starting from 0.01 μM, 0.1 μM, 0.4 μM or 5 μM, depending on the degree of inhibition observed during the primary screening). From the dose-response curves, half maximal effective concentration (EC50) could be calculated (see also below).
In more detail, compounds—typically dissolved in DMSO stock solutions—were diluted to 2× the final desired concentration in 100 μl of the above medium (without doxycycline) and plated in three replicates in the 96-well plates.
Simultaneously, HepAD38 cells—extensively pre-washed in doxycycline-free medium in order to induce HBV production—were suspended at 2*10^4 cells in 100 μl of doxycycline-free medium and added to each well of the plate, to yield a final assay volume of 200 μl.
DMSO, used for stock solutions and compounds dilutions, was always present in the assays at a final concentration of 0.5%.
Plates were then incubated 96 hours at 37° C. and then subjected to cell viability assays and extracellular HBV quantification, in order to evaluate both the cytotoxic potential and the antiviral activity of compounds.
Cytotoxicity was assessed by a commercial fluorescence assay that measures the metabolic activity of cells, directly related to cell viability (Cell Titer Blue, Promega). For each compound, cytotoxicity was evaluated at the same concentration employed to evaluate its anti-HBV activity. Anti-HBV activity was evaluated by quantification of extracellular HBV DNA with direct qPCR. In particular, supernatant was collected and centrifuged for cell debris clarification, viral DNA was extracted from virions by addition of lysis buffer (1 mM 1,4-dithiothreitol, 0.2% sodium dodecyl sulphate) and incubated at 95° C. for 10 min. Samples were then diluted 1:40 and real time PCR amplification was performed with SYBR green assay (Power SYBR™ Green PCR Master Mix-Thermo Fisher Scientific) and specific HBV primer (HBV-DF:5′-[…]-3′ (SEQ ID No. 1), HBV-DR:5′-[…]-3′ (SEQ ID No. 2)).
Antiviral activity data for each compound are reported as EC50 value (see Table 1 legend). Excel and Graphpad Prism programs are typically used for data elaboration and EC50 calculation.

| Structure (SMILES) | EC50 [nM] |
| --- | --- |
| Cc1cc(NC(=O)c2c3c(cn2C)S(=O)(=O)NC2CCN(C(=O)C(=O)NC4CC4)CC2CO3)ccc1F (racemic) [Example E54, Trans-8-(2-(cyclopropylamino)-2-oxoacetyl)-N-(4-fluoro-3-methylphenyl)-2-methyl-5,5a,6,7,8,9,9a,10-octahydro-2H-pyrido[4,3-f]pyrrolo[3,4-b][1,4,5]oxathiazocine-1-carboxamide 4,4-dioxide] | < 500 |
| Cc1cc(NC(=O)c2c3c(cn2C)S(=O)(=O)NC2CCN(C(=O)C(=O)N4CC(F)(F)C4)CC2CO3)ccc1F (racemic) [Example E55, Trans-8-(2-(3,3-difluoroazetidin-1-yl)-2-oxoacetyl)-N-(4-fluoro-3-methylphenyl)-2-methyl-5,5a,6,7,8,9,9a,10-octahydro-2H-pyrido[4,3-f]pyrrolo[3,4-b][1,4,5]oxathiazocine-1-carboxamide 4,4-dioxide] | < 500 |
| Cc1cc(NC(=O)c2c3c(cn2C)S(=O)(=O)NC2CCN(C(=O)C(=O)N[C@@H](C)C(F)(F)F)CC2CO3)ccc1F (mixture of isomers) [Example E56, Trans-N-(4-fluoro-3-methylphenyl)-2-methyl-8-(2-oxo-2-(((S)-1,1,1-trifluoropropan-2-yl)amino)acetyl)-5,5a,6,7,8,9,9a,10-octahydro-2H-pyrido[4,3-f]pyrrolo[3,4-b][1,4,5]oxathiazocine-1-carboxamide 4,4-dioxide] | < 500 |
| Cc1cc(NC(=O)c2c3c(cn2C)S(=O)(=O)NC2CCN(C(=O)C(=O)NCC(F)(F)F)CC2CO3)ccc1F (racemic) [Example E57, Trans-N-(4-fluoro-3-methylphenyl)-2-methyl-8-(2-oxo-2-((2,2,2-trifluoroethyl)amino)acetyl)-5,5a,6,7,8,9,9a,10-octahydro-2H-pyrido[4,3-f]pyrrolo[3,4-b][1,4,5]oxathiazocine-1-carboxamide 4,4-dioxide] | < 500 |
| Cc1cc(NC(=O)c2c3c(cn2C)S(=O)(=O)NC2CCN(C(=O)C(=O)NC(C)(C)C(F)(F)F)CC2CO3)ccc1F (racemic) [Example E58, Trans-N-(4-fluoro-3-methylphenyl)-2-methyl-8-(2-oxo-2-((1,1,1-trifluoro-2-methylpropan-2-yl)amino)acetyl)-5,5a,6,7,8,9,9a,10-octahydro-2H-pyrido[4,3-f]pyrrolo[3,4-b][1,4,5]oxathiazocine-1-carboxamide 4,4-dioxide] | < 500 |
| Cc1cc(NC(=O)c2c3c(cn2C)S(=O)(=O)NC2CCN(C(=O)C(=O)N[C@H](C)C(F)(F)F)CC2CO3)ccc1F (mixture of isomers) [Example E59, Trans-N-(4-fluoro-3-methylphenyl)-2-methyl-8-(2-oxo-2-(((R)-1,1,1-trifluoropropan-2-yl)amino)acetyl)-5,5a,6,7,8,9,9a,10-octahydro-2H-pyrido[4,3-f]pyrrolo[3,4-b][1,4,5]oxathiazocine-1-carboxamide 4,4-dioxide] | < 500 |
| Cc1cc(NC(=O)c2c3c(cn2C)S(=O)(=O)NC2CN(C(=O)C(=O)N[C@H](C)C(F)(F)F)CCC2CO3)ccc1F (mixture of isomers) [Example E60, Cis-N-(4-fluoro-3-methylphenyl)-2-methyl-7-(2-oxo-2-(((R)-1,1,1-trifluoropropan-2-yl)amino)acetyl)-5,5a,6,7,8,9,9a,10-octahydro-2H-pyrido[3,4-f]pyrrolo[3,4-b][1,4,5]oxathiazocine-1-carboxamide 4,4-dioxide] | < 500 |
| Cc1cc(NC(=O)c2c3c(cn2C)S(=O)(=O)NC2CN(C(=O)C(=O)NCC(F)(F)F)CCC2CO3)ccc1F (racemic) [Example E61, Cis-N-(4-fluoro-3-methylphenyl)-2-methyl-7-(2-oxo-2-((2,2,2-trifluoroethyl)amino)acetyl)-5,5a,6,7,8,9,9a,10-octahydro-2H-pyrido[3,4-f]pyrrolo[3,4-b][1,4,5]oxathiazocine-1-carboxamide 4,4-dioxide] | < 500 |
